Test results as given in patent publication EP4775577A1, “RAS INHIBITOR” (Tyligand Bioscience (Shanghai) Limited, priority 2023, dated 2025).

Assays:
[1] = Pharmacokinetics in mice; conditions: mouse, in vivo, po, 20 mg/kg
Description: Male CD-1 mice, aged 6-8 weeks, were purchased from Zhejiang Vital River Laboratory Animal Co., Ltd.
For the PO administration group, compounds were formulated in 0.5% Tween 80 and 99.5% (0.5%MC (400cp)) vehicle or 0.5%MC (400cp) vehicle to a final concentration of 1 mg/mL or 2 mg/mL for each compound. The drug formulation was administered to CD-1 mice via gavage at a dose of 10 mL/kg. Blood samples were collected from the submandibular vein or other suitable means at 15 min, 30 min, 1 h, 2 h, 4 h, 6 h, 8 h, and 24 h after administration. The blood samples were centrifuged at low temperature for 5 minutes, and the plasma was collected and stored at -80°C for analysis.
10 µL of plasma sample was taken, 200 µL of methanol containing an internal standard as a precipitant was added to precipitate plasma proteins, the compounds to be tested in the plasma was extracted, centrifuged at low temperature, and 10 µL of the supernatant was injected. The drug concentration in blood plasma was analyzed by LC-MS/MS. The pharmacokinetic parameters were calculated using Winnonlin based on the blood drug concentration data at different time points.

[2] = system: KRAS G12V mutant NCI-H727 cells; assay: Proliferation inhibition of NCI-H727 cells, 3D CellTiter-Glo assay (Method B); format: cell-based, human; conditions: Homo sapiens, NCI-H727, 120 h, Method B; 3D culture with 0.65% methylcellulose, 5 days, CTG; read-out: NCI-H727 IC50/nM
Method in brief: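 Cells grown in 3D medium (RPMI-1640, 10% FBS, 0.65% methylcellulose) overnight, then treated 5 days at 37 °C, 5% CO2 with 9 threefold dilutions from 10 µM top working concentration, duplicate wells. CellTiter-Glo luminescence read; IC50 (nM) fitted by dose-response-inhibition equation.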

[3] = system: KRAS G12D mutant AGS cells; assay: Proliferation inhibition of AGS cells, CellTiter-Glo assay; format: cell-based, human; conditions: Homo sapiens, AGS, 72 h, 3 days, CTG; read-out: AGS IC50/nM
Method in brief: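 AGS cells at 1500 cells/well in F12K + 10% FBS were exposed for 3 days at 37°C to nine 3-fold dilutions from 10 µM top concentration, in duplicate. Viability read by CellTiter-Glo luminescence; IC50 (nM) from dose-response-inhibition fitting.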

AUC(0-t) at 8 h [1]: 4130 ng·h/mL
IC50 [2]: < 1.5 nM
IC50 [3]: < 1.5 nM
SMILES: CCN1CC/C(=C\F)[C@](C)(COc2nc(N3Cc4c(COC)c(C(=O)N(C)C)nn4CC[C@@H]3C)c3cc(Cl)c(-c4c(F)ccc5sc(N)c(C#N)c45)c(F)c3n2)C1 (single isomer, unassigned) [Example 228A]
